# pIC50: −log10 of the molar value.
# Tests used:
# PI3Kδ [1] = molecular target: T1, PI3Kδ (Homo sapiens, UniProt O00329); assay: PI3-Kinase HTRF assay with increasing ATP; type: biochemical; parameters: GST; made in house; host or cells: Sf9 insect cells; conditions: IC50 increasing in concert with ATP levels
# Text: Utilizing the crystal structure of PI3Kδ, we designed and synthesized a series of compounds in an effort to discover new potent and selective PI3Kδ inhibitors, which bind to PI3Kδ differently from CAL-101. […] The benzimidazole group of X-370 extends into the affinity pocket, where its nitrogen acts as a hydrogen bond acceptor for the primary amine of Lys779. The difluoromethyl group of X-370 points toward Pro758 in the hydrophobic affinity pocket. Instead of wedging between Met752 and Trp760, a binding mode utilized by CAL-101 to generate specificity against PI3Kδ (Figure S1), the pyrrole group of X-370 presses tightly against Trp760. These specific interactions of X-370 with p110δ confer a selective and potent inhibition of PI3Kδ. As expected, X-370 inhibited the kinase activity of PI3Kδ in an ATP-competitive manner, with IC50 increasing in concert with ATP levels (Figure 1C), confirming the binding of X-370 in the ATP pocket. […] More than 1000-fold selectivity was seen against other lipid kinases tested including PI3KC2α, PI3KC2γ, PIP4K2α, PIP5K1α and PIP5K1γ. […]
# (§1) In vitro kinase profile assays were analyzed by the Kinase Profiler Service (Millipore, United Kingdom) following its guidelines. […] The PI3K kinase activity was determined in the increasing concentration of ATP and X-370 with PI3-Kinase HTRF™ Assay kit (Millipore) as described previously.
# PI3Kδ [2] = molecular target: T1, PI3Kδ; assay: Kinase Profiler lipid kinase IC50; type: biochemical; parameters: purchased Millipore (Kinase Profiler Services, United Kingdom); conditions: ATP at Km of the isoform; 10-point half-log dilution from 1000 nM
# Method: Figure 1 Structure of X-370 and its inhibitory activity against lipid kinases (A) Chemical structure of X-370. (B) X-370 docked to the crystal structure of PI3Kδ. The model was generated based on the co-crystal structure of PI3Kδ and ZSTK474 (PDB ID: 2WXL). (C) IC50 of X-370 against PI3Kδ increased along with ATP concentration. […] Data was obtained from Kinase Profiler Services (Millipore, United Kingdom). Briefly, X-370 was solved in DMSO at a concentration of 10 mM, 10-point kinase inhibitory activity was measured over concentrations in a half-log dilution series started at 1000 nM with ATP at a concentration consistent with Km of each isoform of class I PI3K and IC50s were calculated. Relative kinase activity in the presence of 10 μM X-370 compared to DMSO control was measured for the rest of lipid kinases. […]
# as §1
# [3] = system: panel of 61 protein kinases; assay: Panel of 61 protein kinases; type: biochemical, human; conditions: 10 μM
# Text: Utilizing the crystal structure of PI3Kδ, we designed and synthesized a series of compounds in an effort to discover new potent and selective PI3Kδ inhibitors, which bind to PI3Kδ differently from CAL-101. […] The benzimidazole group of X-370 extends into the affinity pocket, where its nitrogen acts as a hydrogen bond acceptor for the primary amine of Lys779. The difluoromethyl group of X-370 points toward Pro758 in the hydrophobic affinity pocket. Instead of wedging between Met752 and Trp760, a binding mode utilized by CAL-101 to generate specificity against PI3Kδ (Figure S1), the pyrrole group of X-370 presses tightly against Trp760. These specific interactions of X-370 with p110δ confer a selective and potent inhibition of PI3Kδ. […]
# In vitro kinase profile assays were analyzed by the Kinase Profiler Service (Millipore, United Kingdom) following its guidelines. […] The PI3K kinase activity was determined in the increasing concentration of ATP and X-370 with PI3-Kinase HTRF™ Assay kit (Millipore) as described previously. […]
# Cell lysates were probed with indicated antibodies. The IC50 values were calculated based on relative band intensity measured with ImageQuant™ TL (GE Healthcare Life Sciences, Piscataway, NJ). […]
# T1 sequence (O00329 whole entry): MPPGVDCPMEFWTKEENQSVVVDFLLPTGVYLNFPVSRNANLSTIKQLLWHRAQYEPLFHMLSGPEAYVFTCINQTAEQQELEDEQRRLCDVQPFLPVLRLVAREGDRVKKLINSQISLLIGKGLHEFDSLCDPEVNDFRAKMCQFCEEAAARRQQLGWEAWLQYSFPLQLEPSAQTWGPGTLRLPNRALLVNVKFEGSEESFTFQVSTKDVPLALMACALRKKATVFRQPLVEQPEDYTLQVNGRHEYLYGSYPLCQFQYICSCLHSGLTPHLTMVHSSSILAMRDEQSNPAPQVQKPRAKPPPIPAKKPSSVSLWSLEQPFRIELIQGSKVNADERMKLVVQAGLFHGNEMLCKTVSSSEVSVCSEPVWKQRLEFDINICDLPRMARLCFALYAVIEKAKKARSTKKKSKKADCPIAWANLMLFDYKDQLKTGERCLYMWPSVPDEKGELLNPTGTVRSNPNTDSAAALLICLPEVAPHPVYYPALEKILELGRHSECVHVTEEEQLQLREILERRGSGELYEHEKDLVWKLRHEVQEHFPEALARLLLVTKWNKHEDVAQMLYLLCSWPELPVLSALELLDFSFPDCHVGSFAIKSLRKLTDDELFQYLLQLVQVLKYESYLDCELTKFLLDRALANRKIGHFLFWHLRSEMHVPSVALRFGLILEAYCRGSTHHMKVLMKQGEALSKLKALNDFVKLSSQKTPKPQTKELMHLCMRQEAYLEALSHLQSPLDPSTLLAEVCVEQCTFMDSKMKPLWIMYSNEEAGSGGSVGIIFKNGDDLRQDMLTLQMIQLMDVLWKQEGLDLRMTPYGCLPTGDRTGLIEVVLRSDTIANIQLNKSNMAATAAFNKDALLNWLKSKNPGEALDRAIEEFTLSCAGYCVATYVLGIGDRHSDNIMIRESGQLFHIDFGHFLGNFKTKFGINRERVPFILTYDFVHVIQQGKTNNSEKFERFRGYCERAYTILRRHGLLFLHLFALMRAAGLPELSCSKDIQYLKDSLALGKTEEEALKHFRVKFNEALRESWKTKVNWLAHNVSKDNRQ
# T1 sequence (P27986 whole entry partner): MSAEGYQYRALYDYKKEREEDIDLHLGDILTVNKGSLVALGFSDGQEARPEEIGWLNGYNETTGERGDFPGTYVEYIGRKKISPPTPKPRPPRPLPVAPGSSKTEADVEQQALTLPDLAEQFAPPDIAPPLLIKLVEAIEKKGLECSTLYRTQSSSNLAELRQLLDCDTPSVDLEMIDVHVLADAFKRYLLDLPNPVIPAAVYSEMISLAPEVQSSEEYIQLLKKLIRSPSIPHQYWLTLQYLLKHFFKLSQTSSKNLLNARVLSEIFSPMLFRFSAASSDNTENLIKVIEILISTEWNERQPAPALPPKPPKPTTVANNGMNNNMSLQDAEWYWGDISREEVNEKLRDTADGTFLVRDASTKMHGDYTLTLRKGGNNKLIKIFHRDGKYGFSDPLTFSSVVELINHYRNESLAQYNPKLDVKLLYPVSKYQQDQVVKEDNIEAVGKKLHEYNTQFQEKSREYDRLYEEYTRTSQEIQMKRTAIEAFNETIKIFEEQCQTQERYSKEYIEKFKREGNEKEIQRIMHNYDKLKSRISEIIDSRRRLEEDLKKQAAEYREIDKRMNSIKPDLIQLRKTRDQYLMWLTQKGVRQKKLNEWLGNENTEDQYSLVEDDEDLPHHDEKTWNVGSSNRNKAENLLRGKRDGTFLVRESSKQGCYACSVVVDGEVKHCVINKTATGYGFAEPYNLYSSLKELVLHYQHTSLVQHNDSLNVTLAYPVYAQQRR
structure (smiles),measurement,setting,value
O=C(N1CCCC1)N1CCC(n2cnc3c(-n4c(C(F)F)nc5ccccc54)nc(N4CCOCC4)nc32)CC1 [X-370],manner of inhibition of PI3Kδ kinase activity,PI3Kδ [1],ATP-competitive
same,pIC50,PI3Kδ [2],8.15
same,activity against all kinases of the panel,[3],little activity
